A short description of data set [1]: AUC (0 to infinity) in ICR mouse at 20 mg/kg,iv administration measured upto 6 hrs by LC-MS/MS analysis. It is filed as ADME, organism-based. The conditions noted are these: in vivo.
Data set [2] in a line: Clearance in ICR mouse at 20 mg/kg,iv administration measured upto 6 hrs by LC-MS/MS analysis. It is filed as ADME, organism-based. The settings on record: in vivo.
Data set [3] in a line: Half life in ICR mouse at 20 mg/kg,iv administration measured upto 6 hrs by LC-MS/MS analysis. In kind it is ADME, organism-based. The conditions noted are these: in vivo.
The nature of data set [4]: MRT in ICR mouse at 20 mg/kg,iv administration measured upto 6 hrs by LC-MS/MS analysis. It is filed as ADME, organism-based. The settings on record: in vivo.
A short description of data set [5]: Volume of distribution at steady state in ICR mouse at 20 mg/kg,iv administration measured upto 6 hrs by LC-MS/MS analysis. In kind it is ADME, organism-based. The settings on record: in vivo, read-out: Vdss.
The subject of data set [6] is Acinetobacter baumannii. The experiment in a line: Antibacterial activity against multidrug-resistant Acinetobacter baumannii BM-2023-D2-010 infected in ICR mouse assessed as survival rate at 40 mg/kg,iv after 1 and 5 hour of post-infection measured after 7 days relative to control. It is filed as functional. The settings on record: time 7 day.
Data set [7] deals with Acinetobacter baumannii. The experiment in a line: Antibacterial activity against multidrug-resistant Acinetobacter baumannii BM-2023-D2-010 infected in ICR mouse assessed as survival rate at 28 mg/kg,iv after 1 and 5 hour of post-infection measured after 7 days relative to control. The conditions noted are these: time 7 day. In kind it is functional.
Data set [8] relates to Acinetobacter baumannii. The experiment in a line: Antibacterial activity against multidrug-resistant Acinetobacter baumannii BM-2023-D2-010 infected in ICR mouse assessed as survival rate at 19.6 mg/kg,iv after 1 and 5 hour of post-infection measured after 7 days relative to control. It is filed as functional. The settings on record: time 7 day.
Data set [9] concerns Acinetobacter baumannii. Briefly: Antibacterial activity against multidrug-resistant Acinetobacter baumannii BM-2023-D2-010 infected in ICR mouse assessed as survival rate at 13.7 mg/kg,iv after 1 and 5 hour of post-infection measured after 7 days relative to control. It is filed as functional. The conditions noted are these: time 7 day.
Data set [10] deals with Acinetobacter baumannii. Briefly: Antibacterial activity against multidrug-resistant Acinetobacter baumannii BM-2023-D2-010 infected in ICR mouse assessed as survival rate at 9.6 mg/kg,iv after 1 and 5 hour of post-infection measured after 7 days relative to control. The settings on record: time 7 day. In kind it is functional.
The subject of data set [11] is Acinetobacter baumannii. Briefly: Antibacterial activity against multidrug-resistant Acinetobacter baumannii BM-2023-D2-010 infected in ICR mouse assessed as survival rate at 6.72 mg/kg,iv after 1 and 5 hour of post-infection measured after 7 days relative to control. In kind it is functional. The conditions noted are these: time 7 day.
Data set [12] has as its system Acinetobacter baumannii. The experiment in a line: Antibacterial activity against multidrug-resistant Acinetobacter baumannii BM-2023-D2-010 infected in ICR mouse assessed as survival rate at 4.71 mg/kg,iv after 1 and 5 hour of post-infection measured after 7 days relative to control. The settings on record: time 7 day. In kind it is functional.
Data set [13] deals with Acinetobacter baumannii. Briefly: Antibacterial activity against multidrug-resistant Acinetobacter baumannii BM-2023-D2-010 infected in ICR mouse assessed as survival rate at 3.3 mg/kg,iv after 1 and 5 hour of post-infection measured after 7 days relative to control. In kind it is functional. The conditions noted are these: time 7 day.
A short description of data set [14]: AUC (0 to infinity) in ICR mouse at 20 mg/kg,iv administration measured upto 4 hrs by LC-MS/MS analysis. It is filed as ADME, organism-based. The settings on record: in vivo.
Data set [15] in a line: Clearance in ICR mouse at 20 mg/kg,iv administration measured upto 4 hrs by LC-MS/MS analysis. The conditions noted are these: in vivo. It is filed as ADME, organism-based.
Data set [16] is described as follows: Half life in ICR mouse at 20 mg/kg,iv administration measured upto 4 hrs by LC-MS/MS analysis. It is filed as ADME, organism-based. The settings on record: in vivo.
Data set [17] can be described thus: MRT in ICR mouse at 20 mg/kg,iv administration measured upto 4 hrs by LC-MS/MS analysis. The conditions noted are these: in vivo. In kind it is ADME, organism-based.
Data set [18] in a line: Volume of distribution at steady state in ICR mouse at 20 mg/kg,iv administration measured upto 4 hrs by LC-MS/MS analysis. It is filed as ADME, organism-based. The conditions noted are these: in vivo, read-out: Vdss.
Data set [19] can be described thus: AUC (0 to infinity) in Sprague-Dawley rat at 5 mg/kg,iv administration measured upto 4 hrs by LC-MS/MS analysis. In kind it is ADME, organism-based. The conditions noted are these: in vivo.
Data set [20] can be described thus: Clearance in Sprague-Dawley rat at 5 mg/kg,iv administration measured upto 4 hrs by LC-MS/MS analysis. It is filed as ADME, organism-based. The settings on record: in vivo.
Data set [21] can be described thus: Half life in Sprague-Dawley rat at 5 mg/kg,iv administration measured upto 4 hrs by LC-MS/MS analysis. In kind it is ADME, organism-based. The settings on record: in vivo.
A short description of data set [22]: MRT in Sprague-Dawley rat at 5 mg/kg,iv administration measured upto 4 hrs by LC-MS/MS analysis. In kind it is ADME, organism-based. The settings on record: in vivo.
Data set [23] in a line: Volume of distribution at steady state in Sprague-Dawley rat at 5 mg/kg,iv administration measured upto 4 hrs by LC-MS/MS analysis. In kind it is ADME, organism-based. The conditions noted are these: in vivo, read-out: Vdss.
The target of the next data set is hERG (KCNH2) (Homo sapiens, UniProt Q12809). Briefly: Inhibition of hERG at 3 uM by whole cell Qpatch assay relative to control. In kind it is toxicity.
hERG (KCNH2), sequence (Q12809 whole entry): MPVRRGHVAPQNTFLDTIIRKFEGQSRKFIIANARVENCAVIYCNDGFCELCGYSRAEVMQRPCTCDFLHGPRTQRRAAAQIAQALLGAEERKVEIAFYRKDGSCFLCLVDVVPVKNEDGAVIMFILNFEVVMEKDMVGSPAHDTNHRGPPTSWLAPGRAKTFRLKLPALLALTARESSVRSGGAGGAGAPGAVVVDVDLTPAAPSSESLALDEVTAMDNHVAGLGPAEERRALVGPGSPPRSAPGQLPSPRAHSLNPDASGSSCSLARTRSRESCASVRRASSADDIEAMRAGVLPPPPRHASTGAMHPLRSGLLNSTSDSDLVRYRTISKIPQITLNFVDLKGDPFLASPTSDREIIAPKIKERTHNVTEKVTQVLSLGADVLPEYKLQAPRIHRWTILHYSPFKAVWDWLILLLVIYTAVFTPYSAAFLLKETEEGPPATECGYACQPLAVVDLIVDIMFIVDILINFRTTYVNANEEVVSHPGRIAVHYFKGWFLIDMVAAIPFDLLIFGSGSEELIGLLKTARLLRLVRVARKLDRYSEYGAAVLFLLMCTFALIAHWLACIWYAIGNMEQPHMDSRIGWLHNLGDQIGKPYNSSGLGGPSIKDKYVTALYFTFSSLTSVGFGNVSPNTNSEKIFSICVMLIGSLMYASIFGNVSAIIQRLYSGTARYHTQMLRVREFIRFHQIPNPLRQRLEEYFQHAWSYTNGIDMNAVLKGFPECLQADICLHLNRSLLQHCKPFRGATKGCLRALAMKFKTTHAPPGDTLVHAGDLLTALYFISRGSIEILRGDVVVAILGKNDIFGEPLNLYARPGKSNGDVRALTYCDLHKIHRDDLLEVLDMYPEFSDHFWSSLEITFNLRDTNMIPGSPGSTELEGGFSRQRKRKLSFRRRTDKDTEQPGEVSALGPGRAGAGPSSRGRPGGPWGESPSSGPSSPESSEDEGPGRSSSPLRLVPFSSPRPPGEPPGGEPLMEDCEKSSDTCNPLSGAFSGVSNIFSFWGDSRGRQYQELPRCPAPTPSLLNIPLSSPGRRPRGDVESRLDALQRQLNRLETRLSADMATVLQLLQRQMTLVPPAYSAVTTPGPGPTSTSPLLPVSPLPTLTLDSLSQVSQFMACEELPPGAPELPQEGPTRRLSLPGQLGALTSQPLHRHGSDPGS

As for `CC(C)(O/N=C(\C(=O)N[C@@H]1C(=O)N2C(C(=O)[O-])=C(C[N+]3(CCNC(=O)c4ccc(O)c(O)c4Cl)CCCC3)CS[C@H]12)c1csc(N)n1)C(=O)[O-].[Na+]`, the AUC(0-inf) in [1] stood at 11600 ng·h/mL. The same compound gave a clearance in data set [2] of 29.2 mL/min/kg. The compound further had a half-life in data set [3] of 16.2 min. In [4], this compound displayed an MRT of 16.8 min. The Vd in data set [5] amounted to 0.488 L/kg. Further, the Activity was 100% with Acinetobacter baumannii [6]; 100% in the data set with Acinetobacter baumannii [7]; 100% with Acinetobacter baumannii [8]; 100% with Acinetobacter baumannii [9]; 70% with Acinetobacter baumannii [10]; 50% in the data set on Acinetobacter baumannii [11]. The Activity is 20% in the data set on Acinetobacter baumannii [12] and 0% in the data set on Acinetobacter baumannii [13].
Take `Nc1nc(/C(=N/O[C@@H](C(=O)[O-])C2CCC(F)(F)CC2)C(=O)N[C@@H]2C(=O)N3C(C(=O)O)=C(CSCCNC(=O)c4ccc(O)c(O)c4Cl)CS[C@H]23)cs1.[Na+]`: the AUC(0-inf) worked out at 8910 ng·h/mL in [14] and 2260 ng·h/mL in data set [19]. Also, the clearance in data set [15] came out at 49.8 mL/min/kg; in data set [20], 38.7 mL/min/kg. For the same compound, the half-life in data set [16] is 29.4 min; in [21], 13.8 min. The MRT in data set [17] and in [22] was 9.6 min throughout. In addition, the Vd in data set [18] is 0.488 L/kg; in data set [23], 0.37 L/kg. Moreover, the Activity in the data set on Acinetobacter baumannii [6] stood at 100%; in the data set with Acinetobacter baumannii [7] it was 100%; with Acinetobacter baumannii [8], 100%; with Acinetobacter baumannii [9], 100%; in the data set with Acinetobacter baumannii [10], 70%; in the data set on Acinetobacter baumannii [11], 30%. Also, the Activity in the data set on Acinetobacter baumannii [12] amounted to 20%.
Consider `COc1cc(N)c(Cl)cc1C(=O)N[C@H]1CCN(CCCOc2ccc(F)cc2)C[C@H]1OC` [REL-CISAPRIDE], for which, on hERG (KCNH2), the inhibition at 3 µM was found to be 97.8%.

Source of the values: ChEMBL document CHEMBL5543142, “Discovery of YFJ-36: Design, Synthesis, and Antibacterial Activities of Catechol-Conjugated β-Lactams against Gram-Negative Bacteria” (J Med Chem, 2024).
